# Experimental data as given in US6528630B1 (priority 1997, dated 2003).
# Assays:
# [1] = tested on: human neuronal calcium channel α2 and β1 subunits; test: Two-electrode voltage clamp of Xenopus oöcytes injected with α2 and β1 transcripts; details: Bay K 8644; n=11
# [2] = tested on: untransfected HEK 293 cells; test: Whole-cell patch clamp of untransfected HEK 293 cells; format: cell-based, human; details: with or without cAMP or forskolin
# α1B-1α2bβ1-2 [3] = target: T1, α1B-1α2bβ1-2 (Homo sapiens, UniProt Q00975); format: cell-based
# T1 construct: A full-length α1B DNA clone was constructed by ligating portions of the partial cDNA clones; expressed in transfected cells; host or cells: HEK293 (transient)
# α1B-1α2bβ1-2 [4] = target: T1, α1B-1α2bβ1-2; format: binding
# α1B-1β1-2 = target: T2, α1B-1β1-2 (Homo sapiens, UniProt Q00975); format: binding
# T2 construct: A full-length α1B DNA clone was constructed by ligating portions of the partial cDNA clones; expressed in transfected cells; host or cells: HEK293 (transient)
# α1B-2β1-2 = target: T3, α1B-2β1-2 (Homo sapiens, UniProt Q00975); format: binding
# T3 construct: Full-length DNA clones and corresponding RNA transcripts, encoding α1, including splice variants of α1A, α1B; expressed in transfected cells; host or cells: HEK293 (transient)
# α1B-2α2bβ1-3 = target: T4, α1B-2α2bβ1-3 (Homo sapiens, UniProt Q00975); format: binding
# T4 construct: Full-length DNA clones and corresponding RNA transcripts, encoding α1, including splice variants of α1A, α1B; expressed in transfected cells; host or cells: HEK293 (transient)
# α1B-1β1-3 = target: T5, α1B-1β1-3 (Homo sapiens, UniProt Q00975); format: binding
# T5 construct: A full-length α1B DNA clone was constructed by ligating portions of the partial cDNA clones; expressed in transfected cells; host or cells: HEK293 (transient)
# α1B-1α2bβ1-3 = target: T6, α1B-1α2bβ1-3 (Homo sapiens, UniProt Q00975); format: binding
# T6 construct: A full-length α1B DNA clone was constructed by ligating portions of the partial cDNA clones; expressed in transfected cells; host or cells: HEK293 (transient)
# α1B-1α2b = target: T7, α1B-1α2b (Homo sapiens, UniProt Q00975); format: binding
# T7 construct: A full-length α1B DNA clone was constructed by ligating portions of the partial cDNA clones; expressed in transfected cells; host or cells: HEK293 (transient)
# α1B-2β1-3 = target: T8, α1B-2β1-3 (Homo sapiens, UniProt Q00975); format: binding
# T8 construct: Full-length DNA clones and corresponding RNA transcripts, encoding α1, including splice variants of α1A, α1B; expressed in transfected cells; host or cells: HEK293 (transient)
# α1B-2a2bβ1-2 = target: T9, α1B-2a2bβ1-2 (Homo sapiens, UniProt Q00975); format: binding
# T9 construct: Full-length DNA clones and corresponding RNA transcripts, encoding α1, including splice variants of α1A, α1B; expressed in transfected cells; host or cells: HEK293 (transient)
# [5] = target: T10, α1B-1, α2b, and β1-2 subunits (Homo sapiens, UniProt Q00975); format: binding
# T10 construct: A full-length α1B DNA clone was constructed by ligating portions of the partial cDNA clones; expressed in transfected cells; host or cells: HEK293 (transient)
# T10 sequence (Q00975 whole entry, looked up): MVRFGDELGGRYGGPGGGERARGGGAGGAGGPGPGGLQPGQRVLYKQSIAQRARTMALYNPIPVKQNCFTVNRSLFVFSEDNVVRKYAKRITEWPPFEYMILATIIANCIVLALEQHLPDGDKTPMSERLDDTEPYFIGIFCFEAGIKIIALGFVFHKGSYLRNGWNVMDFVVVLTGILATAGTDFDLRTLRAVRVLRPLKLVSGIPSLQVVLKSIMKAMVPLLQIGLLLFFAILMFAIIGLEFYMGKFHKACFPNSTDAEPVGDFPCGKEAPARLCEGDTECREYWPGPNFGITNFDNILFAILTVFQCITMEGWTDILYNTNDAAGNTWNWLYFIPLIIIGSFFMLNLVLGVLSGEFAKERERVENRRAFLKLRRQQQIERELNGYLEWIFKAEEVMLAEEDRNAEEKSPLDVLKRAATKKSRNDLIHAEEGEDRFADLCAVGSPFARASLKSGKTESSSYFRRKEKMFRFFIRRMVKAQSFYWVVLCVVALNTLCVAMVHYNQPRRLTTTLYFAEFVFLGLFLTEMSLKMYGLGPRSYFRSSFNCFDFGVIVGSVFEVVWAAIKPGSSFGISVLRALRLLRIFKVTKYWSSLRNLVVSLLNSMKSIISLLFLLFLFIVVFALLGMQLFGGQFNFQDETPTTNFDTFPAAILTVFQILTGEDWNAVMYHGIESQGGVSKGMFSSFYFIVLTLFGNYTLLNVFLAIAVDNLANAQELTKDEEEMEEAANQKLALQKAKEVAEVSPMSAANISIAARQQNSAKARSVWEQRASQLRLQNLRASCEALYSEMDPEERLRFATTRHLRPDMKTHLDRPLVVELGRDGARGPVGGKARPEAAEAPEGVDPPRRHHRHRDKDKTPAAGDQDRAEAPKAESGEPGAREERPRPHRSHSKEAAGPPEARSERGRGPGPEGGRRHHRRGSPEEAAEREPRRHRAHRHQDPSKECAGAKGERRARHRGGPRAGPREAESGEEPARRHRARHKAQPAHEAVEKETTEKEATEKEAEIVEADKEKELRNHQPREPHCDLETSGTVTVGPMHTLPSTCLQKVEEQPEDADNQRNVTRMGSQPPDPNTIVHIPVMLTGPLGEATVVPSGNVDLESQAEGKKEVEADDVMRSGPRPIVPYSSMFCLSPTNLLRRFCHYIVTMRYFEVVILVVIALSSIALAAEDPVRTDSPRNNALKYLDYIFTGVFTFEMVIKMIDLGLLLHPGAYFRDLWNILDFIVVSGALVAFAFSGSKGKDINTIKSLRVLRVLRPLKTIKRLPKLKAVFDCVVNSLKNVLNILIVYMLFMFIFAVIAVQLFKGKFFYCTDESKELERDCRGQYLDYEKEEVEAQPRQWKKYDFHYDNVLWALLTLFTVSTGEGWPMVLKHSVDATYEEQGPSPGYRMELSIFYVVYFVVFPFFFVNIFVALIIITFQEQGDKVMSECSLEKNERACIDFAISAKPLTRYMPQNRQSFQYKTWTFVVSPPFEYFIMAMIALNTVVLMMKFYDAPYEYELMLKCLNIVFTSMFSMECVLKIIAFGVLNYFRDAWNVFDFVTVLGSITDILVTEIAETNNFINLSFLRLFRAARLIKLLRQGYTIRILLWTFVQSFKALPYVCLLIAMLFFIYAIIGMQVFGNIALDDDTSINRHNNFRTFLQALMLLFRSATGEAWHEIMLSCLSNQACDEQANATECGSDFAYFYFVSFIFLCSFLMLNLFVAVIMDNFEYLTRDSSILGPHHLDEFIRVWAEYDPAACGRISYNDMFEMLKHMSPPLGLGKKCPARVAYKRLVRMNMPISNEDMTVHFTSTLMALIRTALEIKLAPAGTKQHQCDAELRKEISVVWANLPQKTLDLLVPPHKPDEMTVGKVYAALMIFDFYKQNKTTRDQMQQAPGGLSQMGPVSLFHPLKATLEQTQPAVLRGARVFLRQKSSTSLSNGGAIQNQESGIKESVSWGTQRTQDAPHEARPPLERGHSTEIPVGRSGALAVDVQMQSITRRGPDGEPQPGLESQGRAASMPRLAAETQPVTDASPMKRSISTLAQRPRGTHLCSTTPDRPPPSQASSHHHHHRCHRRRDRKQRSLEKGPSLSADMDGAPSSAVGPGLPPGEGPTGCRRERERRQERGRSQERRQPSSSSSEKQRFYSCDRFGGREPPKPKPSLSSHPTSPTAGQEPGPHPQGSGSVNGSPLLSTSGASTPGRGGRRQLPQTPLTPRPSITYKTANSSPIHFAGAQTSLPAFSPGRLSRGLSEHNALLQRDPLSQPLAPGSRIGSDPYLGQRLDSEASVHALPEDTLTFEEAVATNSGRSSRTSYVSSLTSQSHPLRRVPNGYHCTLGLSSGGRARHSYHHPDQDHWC
# T1 sequence (Q00975 whole entry, looked up): as above
# T5 sequence (Q00975 whole entry, looked up): as above
# T6 sequence (Q00975 whole entry, looked up): as above
# T2 sequence (Q00975 whole entry, looked up): as above
# T7 sequence (Q00975 whole entry, looked up): as above
# T4 sequence (Q00975 1-2237 isoform Q00975-2): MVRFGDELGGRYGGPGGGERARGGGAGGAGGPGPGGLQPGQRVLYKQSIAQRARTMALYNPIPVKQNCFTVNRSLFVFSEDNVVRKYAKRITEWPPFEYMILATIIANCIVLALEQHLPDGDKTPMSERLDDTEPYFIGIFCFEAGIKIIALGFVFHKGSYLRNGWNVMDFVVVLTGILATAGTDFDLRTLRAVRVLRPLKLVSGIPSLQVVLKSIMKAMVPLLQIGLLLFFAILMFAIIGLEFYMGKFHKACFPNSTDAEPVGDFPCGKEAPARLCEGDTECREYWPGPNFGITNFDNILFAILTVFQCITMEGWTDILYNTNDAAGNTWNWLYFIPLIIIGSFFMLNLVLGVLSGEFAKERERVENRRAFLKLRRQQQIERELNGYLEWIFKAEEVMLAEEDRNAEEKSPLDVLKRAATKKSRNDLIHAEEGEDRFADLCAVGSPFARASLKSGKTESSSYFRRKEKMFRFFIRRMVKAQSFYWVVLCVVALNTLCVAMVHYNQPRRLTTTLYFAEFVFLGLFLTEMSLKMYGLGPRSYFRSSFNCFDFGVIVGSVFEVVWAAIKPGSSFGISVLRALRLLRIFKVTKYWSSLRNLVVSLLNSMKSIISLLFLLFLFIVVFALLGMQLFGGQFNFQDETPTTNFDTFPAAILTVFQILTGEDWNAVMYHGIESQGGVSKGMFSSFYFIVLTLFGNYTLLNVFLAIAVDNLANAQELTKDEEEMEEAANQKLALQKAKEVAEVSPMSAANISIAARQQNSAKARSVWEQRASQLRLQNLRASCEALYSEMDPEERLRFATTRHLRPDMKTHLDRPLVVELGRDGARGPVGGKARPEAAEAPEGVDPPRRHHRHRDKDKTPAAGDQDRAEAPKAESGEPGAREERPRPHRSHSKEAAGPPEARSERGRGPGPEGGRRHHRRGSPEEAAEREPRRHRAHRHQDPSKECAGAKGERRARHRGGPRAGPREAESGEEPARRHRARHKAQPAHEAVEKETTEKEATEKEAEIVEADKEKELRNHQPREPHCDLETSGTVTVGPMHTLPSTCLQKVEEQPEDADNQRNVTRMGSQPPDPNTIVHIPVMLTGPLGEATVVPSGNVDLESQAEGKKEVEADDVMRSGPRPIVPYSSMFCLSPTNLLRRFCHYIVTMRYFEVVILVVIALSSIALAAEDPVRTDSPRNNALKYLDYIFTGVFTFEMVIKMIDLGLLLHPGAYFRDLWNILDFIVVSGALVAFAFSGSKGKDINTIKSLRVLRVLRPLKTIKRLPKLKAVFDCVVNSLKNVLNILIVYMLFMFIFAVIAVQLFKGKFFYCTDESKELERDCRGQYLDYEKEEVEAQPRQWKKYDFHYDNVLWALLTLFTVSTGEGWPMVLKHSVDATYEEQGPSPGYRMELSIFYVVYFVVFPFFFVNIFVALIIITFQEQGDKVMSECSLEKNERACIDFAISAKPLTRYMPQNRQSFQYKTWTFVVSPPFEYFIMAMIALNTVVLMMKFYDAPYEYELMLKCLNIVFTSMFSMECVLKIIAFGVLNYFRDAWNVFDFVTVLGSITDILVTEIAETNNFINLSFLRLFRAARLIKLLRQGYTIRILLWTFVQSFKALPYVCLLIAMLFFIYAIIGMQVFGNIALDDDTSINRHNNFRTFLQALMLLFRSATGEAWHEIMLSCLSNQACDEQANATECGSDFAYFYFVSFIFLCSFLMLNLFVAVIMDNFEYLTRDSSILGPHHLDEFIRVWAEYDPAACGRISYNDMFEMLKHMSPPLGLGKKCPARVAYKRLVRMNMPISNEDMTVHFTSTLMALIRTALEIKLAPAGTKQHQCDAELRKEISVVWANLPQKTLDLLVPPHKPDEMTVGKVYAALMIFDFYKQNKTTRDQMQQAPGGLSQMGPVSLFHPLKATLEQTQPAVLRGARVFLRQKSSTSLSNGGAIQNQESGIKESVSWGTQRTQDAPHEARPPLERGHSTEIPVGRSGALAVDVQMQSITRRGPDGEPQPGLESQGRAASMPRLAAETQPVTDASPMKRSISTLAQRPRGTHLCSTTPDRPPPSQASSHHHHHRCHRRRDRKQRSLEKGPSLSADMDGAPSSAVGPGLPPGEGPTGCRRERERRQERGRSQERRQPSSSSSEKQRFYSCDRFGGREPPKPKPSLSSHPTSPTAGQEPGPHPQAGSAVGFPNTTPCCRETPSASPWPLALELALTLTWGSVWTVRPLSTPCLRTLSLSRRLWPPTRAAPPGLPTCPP
# T9 sequence (Q00975 1-2237 isoform Q00975-2): as above
compound,measurement,setting,value
COC(=O)C1=C(C)NC(C)=C([N+](=O)[O-])C1c1ccccc1C(F)(F)F (centres unmarked) [Bay K 8644],sensitivity of inward barium currents,[1],insensitive
same,"effects of Bay K 8644 (current magnitude, tail currents, activation voltage)",[2],No such effects
same,effect on channel activity,"α1B-1α2bβ1-2 [3]; 1 μM, n=4",no discernable effect
C[C@@H](O)[C@@H]1NC(=O)[C@H](Cc2ccc(O)cc2)NC(=O)[C@@H]2C[C@@H](O)CN2C(=O)[C@H](CC(N)=O)NC(=O)[C@@H]2CSSC[C@@H]3NC(=O)[C@H](CO)NC(=O)[C@H](CO)NC(=O)CNC(=O)[C@@H]4C[C@@H](O)CN4C(=O)[C@H](CO)NC(=O)[C@H](CCCCN)NC(=O)[C@@H](N)CSSC[C@H](NC(=O)[C@H](CSSC[C@@H](C(=O)N[C@@H](Cc4ccc(O)cc4)C(N)=O)NC(=O)[C@H](CCCNC(=N)N)NC(=O)[C@H](CCCCN)NC1=O)NC(=O)[C@H](CC(N)=O)NC(=O)[C@H](Cc1ccc(O)cc1)NC(=O)[C@H](CO)NC(=O)[C@H]([C@@H](C)O)NC(=O)[C@@H]1C[C@@H](O)CN1C(=O)[C@H](CO)NC3=O)C(=O)N[C@@H](CCCNC(=N)N)C(=O)N[C@@H](CO)C(=O)N2 [^125I-ω-CgTx GVIA],Bmax (sites/cell),α1B-1α2bβ1-2 [4],"45,324 ± 15,606 sites/cell"
same,Bmax (sites/cell),α1B-1β1-2,"5,756 ± 2,163 sites/cell"
same,Bmax (sites/cell),α1B-2β1-2,"2,126 ± 412 sites/cell"
same,Bmax (sites/cell),α1B-2α2bβ1-3,"37,652 ± 8,129 sites/cell"
same,Bmax (sites/cell),α1B-1β1-3,"8,729 ± 2,980 sites/cell"
same,Bmax (sites/cell),α1B-1α2bβ1-3,"91,004 ± 37,654 sites/cell"
same,Bmax (sites/cell),α1B-1α2b,"2,256 ± 356 sites/cell"
same,Bmax (sites/cell),α1B-2β1-3,"2,944 ± 1,168 sites/cell"
same,Bmax (sites/cell),α1B-2a2bβ1-2,"19,371 ± 3,798 sites/cell"
[Cd] [cadmium],blockage,α1B-1α2bβ1-2 [3]; 50 μM,"rapid, complete, and reversible"
C[C@@H](O)[C@@H]1NC(=O)[C@H](Cc2ccc(O)cc2)NC(=O)[C@@H]2C[C@@H](O)CN2C(=O)[C@H](CC(N)=O)NC(=O)[C@@H]2CSSC[C@@H]3NC(=O)[C@H](CO)NC(=O)[C@H](CO)NC(=O)CNC(=O)[C@@H]4C[C@@H](O)CN4C(=O)[C@H](CO)NC(=O)[C@H](CCCCN)NC(=O)[C@@H](N)CSSC[C@H](NC(=O)[C@H](CSSC[C@@H](C(=O)N[C@@H](Cc4ccc(O)cc4)C(N)=O)NC(=O)[C@H](CCCNC(=N)N)NC(=O)[C@H](CCCCN)NC1=O)NC(=O)[C@H](CC(N)=O)NC(=O)[C@H](Cc1ccc(O)cc1)NC(=O)[C@H](CO)NC(=O)[C@H]([C@@H](C)O)NC(=O)[C@@H]1C[C@@H](O)CN1C(=O)[C@H](CO)NC3=O)C(=O)N[C@@H](CCCNC(=N)N)C(=O)N[C@@H](CO)C(=O)N2 [ω-CgTX],binding capacity (Bmax),[5],"28,710±11,950 sites per cell"
same,block of activity,α1B-1α2bβ1-2 [3],blocked the activity completely
same,block of channels,α1B-1α2bβ1-2 [3],blocked irreversibly
same,time to complete block,α1B-1α2bβ1-2 [3],≤ 2 min
